In one experiment the test system is small α-syn PFF seeds. Kind of experiment: Time-dependent DLS of small α-syn PFF seeds disassembly. It counts as biochemical. Further details: rate constant of PFF disassembly: unit not given here. Conditions: 200 nM PFF + 500 nM SVD-1a. How it is done:
Fig. 4 SVD-1a disassembles small α-syn PFF seeds into α-syn monomers. Small α-syn PFF seeds were prepared as described previously. […] A and B Time-dependent DLS measurements with 200 nM small α-syn PFF seeds in the absence (A) and presence (B) of 500 nM SVD-1a. 1 ml sample was continuously measured in a sealed quartz cuvette at 37 °C under quiescent conditions every 60 s for 72 h in a SpectroSize 300 instrument (XtalConcepts, GE). Data are shown as a radius plot where the signal amplitude of each particle size is represented by the data point diameter. C One-phase exponential decay fit of “200 nM PFF + 500 nM SVD-1a” shown in (B). Fit was performed for particles in the range of 1–100 nm with an amplitude > 0.2. Outliers were excluded from fitting using a Q value of 1%. […] Fitting was performed using the “One phase exponential decay” fitting function from GraphPad Prism 10 (GraphPad Software Inc., USA). […] D For AFM analysis, small α-syn PFF seeds pretreated with or without 400 and 1600 nM SVD-1a were incubated and dried on a freshly cleaved mica surface, followed by washing with ddH2O and drying using a gentle stream of N2. Analysis was performed using the NanoWizard 3 system (J-1100, JPK BioAFM, USA), recording multiple surface sections. The sections shown are representative of the observed species and particle density identified on all surface sections. E Exemplary Western blot of small α-syn PFF samples incubated with SVD-1a. 200 nM small α-syn PFFs (monomer equivalent) were incubated with increasing concentrations of SVD-1a for 72 h at 37 °C. PFF and monomer samples that were incubated without SVD-1a served as controls. α-Syn was detected with the antibody Syn211. A prominent α-syn monomer band was present at the expected molecular weight. Below the monomer bands, no further bands were visible. In the upper part of the blot, above the marker range, PFFs were detected, using a longer exposure time due to a weaker signal (see Supplementary Fig. 11 for the whole blot image with different exposure times). F Size-based fractionation by centrifugal concentration followed by ELISA quantification. 200 nM small α-syn PFF (monomer equivalent) were incubated with or without SVD-1a together with a 200 nM monomer control for 72 h at 37 °C. After incubation, the samples were fractioned using a 100 kDa MWCO centrifugal concentrator (Merck, Microcon DNA Fast Flow 100 MWCO). α-Syn content of flow through (red) and retentate (blue) was quantified using an α-syn specific ELISA (BioLegend, Human α-Synuclein (Colorimetric), 448607). Shown are the fractions of the retentate and flow through as a percentage of the total concentration identified for each sample. A linear regression line (blue or red dotted lines) was included for the SVD-1a-treated samples (left) to underline the concentration dependency of the SVD-1a treatment effect. The fractions identified for the α-syn monomer control sample are shown as a bar graph (right). […] Data are shown as mean values with ±SD (n = 3).
small α-syn PFF seeds were prepared as described previously with some modifications. […] The monomer equivalent concentration was determined by measuring the α-syn concentration in the supernatant after the first centrifugation and subtracting it from the start concentration for fibrilization. […]

The test system of the next experiment is small α-syn PFF. Kind of experiment: 100 kDa MWCO size-based fractionation of small α-syn PFF followed by ELISA. Format: biochemical, Human. Conditions: 200 nM PFF, 72 h, 37 °C, n = 3. As for the experimental part: Fig. 4 SVD-1a disassembles small α-syn PFF seeds into α-syn monomers. Small α-syn PFF seeds were prepared as described previously. […] A and B Time-dependent DLS measurements with 200 nM small α-syn PFF seeds in the absence (A) and presence (B) of 500 nM SVD-1a. 1 ml sample was continuously measured in a sealed quartz cuvette at 37 °C under quiescent conditions every 60 s for 72 h in a SpectroSize 300 instrument (XtalConcepts, GE). Data are shown as a radius plot where the signal amplitude of each particle size is represented by the data point diameter. C One-phase exponential decay fit of “200 nM PFF + 500 nM SVD-1a” shown in (B). […] PFF and monomer samples that were incubated without SVD-1a served as controls. α-Syn was detected with the antibody Syn211. […] In the upper part of the blot, above the marker range, PFFs were detected, using a longer exposure time due to a weaker signal (see Supplementary Fig. 11 for the whole blot image with different exposure times). F Size-based fractionation by centrifugal concentration followed by ELISA quantification. […] After incubation, the samples were fractioned using a 100 kDa MWCO centrifugal concentrator (Merck, Microcon DNA Fast Flow 100 MWCO). α-Syn content of flow through (red) and retentate (blue) was quantified using an α-syn specific ELISA (BioLegend, Human α-Synuclein (Colorimetric), 448607). […]
A general note: ELISA stands for enzyme-linked immunosorbent assay.

Where [1] appears, read: one-phase exponential decay, 37 °C.

SMILES strings stand for the structures. Square brackets hold non-standard residues; d marks the D form. Peptide text beside a SMILES is read from it.

As to `CC[C@@H](C)[C@@H](NC(=O)[C@@H](Cc1c[nH]cn1)NC(=O)[C@@H](CCC(=O)O)NC(=O)[C@@H](CCC(N)=O)NC(=O)[C@@H](Cc1c[nH]c2ccccc12)NC(=O)[C@@H](Cc1ccc(O)cc1)NC(=O)[C@H](NC(=O)[C@@H](CCC(=O)O)NC(=O)[C@@H](Cc1c[nH]cn1)NC(=O)[C@H](NC(=O)[C@H]1CCCN1C(=O)[C@@H](CC(C)C)NC(=O)[C@H](N)CCCNC(=N)N)[C@H](C)O)[C@H](C)O)C(=O)N[C@H](Cc1c[nH]c2ccccc12)C(=O)N[C@H](Cc1c[nH]cn1)C(=O)N[C@H](C)C(=O)N[C@H](CCCNC(=N)N)C(=O)N[C@H](CCCNC(=N)N)C(=O)N[C@H](CCCNC(=N)N)C(=O)N[C@H](CCCNC(=N)N)C(=O)N[C@H](CCCNC(=N)N)C(N)=O` [SVD-1a] (H-[dR][dL][dP][dT][dH][dE][dT][dY][dW][dQ][dE][dH][dI][dW][dH][dA][dR][dR][dR][dR][dR]-NH2), the “radius of monomeric α-syn formed” value in the experiment with small α-syn PFF seeds (37 °C, 72 h) is ~ 1.6 nm. For the same compound, the “span of one-phase exponential decay” value in the experiment with small α-syn PFF seeds (PBS pH 7.4, 37 °C, 72 h, particles 1–100 nm, amplitude > 0.2) turned out to be 23.38 nm. Further, the “radius of small α-syn PFF seeds eliminated” value in the experiment with small α-syn PFF seeds (no change (26 nm) without SVD-1a) is recorded as ~ 26 nm. In the experiment with small α-syn PFF seeds (setting [1]), the “half-life of PFF disassembly” value was 5.2 h and the “rate constant of PFF disassembly” value was 0.132. Besides, in the experiment with small α-syn PFF (increasing SVD-1a, 100 kDa MWCO, ELISA), the “α-syn fraction in retentate / eluate” value is “concentration-dependent decrease of the α-syn fraction in the retentate—corresponding to small α-syn PFF—and an increase in the eluate”. The “α-syn distribution vs monomer control” value in the experiment with small α-syn PFF (1000 nM SVD-1a) was “shows the same distribution as the monomer control”.

Source of the values: article PMC12454639, “Direct disassembly of α-syn preformed fibrils into α-syn monomers by an all-D-peptide” (NPJ Parkinson's Disease, 2025).
